In brackets after ≈: the same amount, converted by molar mass.
Each compound was assayed on MRSA EMRSA 15 21698/98 (assay: MIC agar dilution, MRSA strain 41). Details: Staphylococcus aureus, 22 hrs.
Format: cell-based
Method: (§1) Molar equivalent concentrations were used to allow comparison between compounds of differing molecular mass. Due to weighing difficulties, any compound in solid form was melted in a water bath prior to dilution. To make ten-times strength concentrations, which takes into account agar dilution, 0.0352 mmol of each compound was weighed into plastic universal bottles and 4 mL of sterile distilled water (SDW) was added. To produce a homogenous emulsion the universals were vortexed; once achieved the emulsions were serial diluted by adding 2 mL to 2 mL of SDW.
(§2) For every 100 mL of Isosensitest agar (IST) (CM0471; Oxoid, Basingstoke, England), 3.1 g of the IST powder was added to 100 mL SDW (as per manufacturer's instructions) and sterilised for 15 minutes at 121° C. Once sterilised, the molten agar was cooled to 50° C. in a water-bath. Subsequently 4.8 g of CCEY powder (BC2160; Bioconnections, Wetherby, England), also known as Brazier's medium, was added to 100 mL SDW for every 100 mL of agar needed. This was then sterilised for 15 minutes at 121° C. Once sterilised the molten agar was cooled to 50° C. in a water-bath and 4 mL of egg-yolk emulsion (S2073; TCS Biosciences Ltd, Buckingham, United Kingdom) and 1 mL of lysed defibrinated horse blood (HB035; TCS Biosciences Ltd, Buckingham, United Kingdom) were also added for every 100 mL needed. Horse blood lysis is achieved by dilution to half concentration with SDW; when fully lysed the mixture will turn dark red in colour.
(§3) 18 mL agar was added to each universal and then poured into sterile Petri dishes. This step creates a 1/10 dilution resulting in agar plates of the required strength. Control plates for each set of strains were created by adding 18 mL of agar to 2 mL of SDW.
(§4) Suspensions of each bacterial species were prepared with a density equal to that of a 0.5 McFarland standard using a densitometer. All suspensions were made using sterile distilled water and fresh 18-20 hour cultures. As a 0.5 McFarland standard contains 1.5×10^8 CFU/mL and the multipoint inoculators applies 1 μL spots of liquid, each bacterial suspension was diluted 1/15 (20 μL suspension to 280 μL sterile distilled water).
(§5) Bacterial suspensions were prepared from fresh 18-24 hour cultures as previously described. 1 μL of each strain was inoculated onto all 100 agar plates containing a different chemical concentration and the 2 control plates. This was done using a multipoint inoculator which inoculates 20 strains per plate. All plates were incubated for 22 hours at 37° C. in aerobic conditions.
(§6) Each plate was examined for bacterial growth after 22 and 48 hours, with each being incubated in between examinations. A positive result was recorded as growth of ≧10 colonies. A negative result was recorded as growth of <10 colonies as this is equivalent to 99.9% inhibition. The lowest concentration of chemical that inhibited growth was recorded as the MIC. The results are recorded in Table IV below, where the numbers are quoted in mmol/L.
(§7) Given the positive performance of the ethoxylates of lauryl alcohol in reducing the MIC for a number of the micro-organisms tested, further MIC testing of Laureth-1 [C12E1] through to Laureth-8 [C12E8] was conducted on each of the following: • 10 strains of vancomycin-resistant enterococci (VRE)—listed in Table V below; and • 20 strains of methicillin-resistant Staphylococcus aureus (MRSA)—listed in Table VI.
(§8) The alkanol, alkanol derivatives, agar plates, and inocula were all prepared in the same way as described above.
(§9) The plates were examined in the same manner as described above and the results are recorded in Table VII below, where the numbers are quoted in mmol/L.

SMILES	MIC [µM]
CCCCCCCCCCCCOCCOCCOCCOCCOCCOCCOCCOCCO [L8, Octaethylene Glycol Monododecyl Ether]	> 440

Same assay, conditions: Staphylococcus aureus, 48 hrs

SMILES	MIC [µM]
CCCCCCCCCCCCOCCOCCOCCOCCOCCOCCOCCOCCO [L8, Octaethylene Glycol Monododecyl Ether]	> 440

What follows are compounds tested on MRSA BEL 97597 (assay: MIC agar dilution, MRSA strain 33). Details: Staphylococcus aureus, 22 hrs.
Format: cell-based
Method: as §1, §2, §3, §4, §5, §6, §7, §8, §9

SMILES	MIC [µM]
CCCCCCCCCCCCOCCOCCOCCOCCOCCOCCOCCOCCO [L8, Octaethylene Glycol Monododecyl Ether]	220 (≈ 119 µg/mL)

Same assay, conditions: Staphylococcus aureus, 48 hrs

SMILES	MIC [µM]
CCCCCCCCCCCCOCCOCCOCCOCCOCCOCCOCCOCCO [L8, Octaethylene Glycol Monododecyl Ether]	> 440

The compounds below were run on Enterococcus faecium (VRE) 12185 Clin waste (assay: MIC agar dilution, VRE strain 24). Details: 22 hrs.
Format: cell-based
Method: as §1, §2, §3, §4, §5, §6, §7, §8, §9

SMILES	MIC [µM]
CCCCCCCCCCCCOCCOCCOCCOCCOCCOCCOCCOCCO [L8, Octaethylene Glycol Monododecyl Ether]	> 880

Same assay, conditions: 48 hrs

SMILES	MIC [µM]
CCCCCCCCCCCCOCCOCCOCCOCCOCCOCCOCCOCCO [L8, Octaethylene Glycol Monododecyl Ether]	> 880

Each compound was assayed on MRSA GER 131/98 (Sger Iidc) (assay: MIC agar dilution, MRSA strain 35). Details: Staphylococcus aureus, 22 hrs.
Format: cell-based
Method: as §1, §2, §3, §4, §5, §6, §7, §8, §9

SMILES	MIC [µM]
CCCCCCCCCCCCOCCOCCOCCOCCOCCOCCOCCOCCO [L8, Octaethylene Glycol Monododecyl Ether]	440 (≈ 237 µg/mL)

Same assay, conditions: Staphylococcus aureus, 48 hrs

SMILES	MIC [µM]
CCCCCCCCCCCCOCCOCCOCCOCCOCCOCCOCCOCCO [L8, Octaethylene Glycol Monododecyl Ether]	> 440

Each compound was assayed on MRSA EMRSA 15 1729/98 (assay: MIC agar dilution, MRSA strain 42). Details: Staphylococcus aureus, 22 hrs.
Format: cell-based
Method: as §1, §2, §3, §4, §5, §6, §7, §8, §9

SMILES	MIC [µM]
CCCCCCCCCCCCOCCOCCOCCOCCOCCOCCOCCOCCO [L8, Octaethylene Glycol Monododecyl Ether]	> 440

Same assay, conditions: Staphylococcus aureus, 48 hrs

SMILES	MIC [µM]
CCCCCCCCCCCCOCCOCCOCCOCCOCCOCCOCCOCCO [L8, Octaethylene Glycol Monododecyl Ether]	> 440

Each compound was assayed on MRSA EMRSA 16 07924/95 (assay: MIC agar dilution, MRSA strain 49). Details: Staphylococcus aureus, 22 hrs.
Format: cell-based
Method: as §1, §2, §3, §4, §5, §6, §7, §8, §9

SMILES	MIC [µM]
CCCCCCCCCCCCOCCOCCOCCOCCOCCOCCOCCOCCO [L8, Octaethylene Glycol Monododecyl Ether]	> 440

Same assay, conditions: Staphylococcus aureus, 48 hrs

SMILES	MIC [µM]
CCCCCCCCCCCCOCCOCCOCCOCCOCCOCCOCCOCCO [L8, Octaethylene Glycol Monododecyl Ether]	> 440

What follows are compounds tested on Staphylococcus aureus (MRSA) (assay: MIC agar dilution, micro-organism 12 (11939)). Details: Staphylococcus aureus, MRSA, 22 h, Staphylococcus aureus (MRSA) 11939; 22 hrs; read-out: MIC.
Format: cell-based
How it was run: (§10)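 Agar dilution in Isosensitest/CCEY agar with egg yolk and lysed horse blood; compounds as aqueous emulsions (myristyl and lauryl alcohol with 1-methyl-2-pyrrolidone and Tween 20). 1 µL spots of 1/15-diluted 0.5 McFarland suspensions, 37 °C aerobic, read at 22 and 48 h; MIC (mmol/L) is lowest concentration giving <10 colonies.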

SMILES	MIC [µM]
CCCCCCCCCCCCOCCOCCOCCOCCOCCOCCOCCOCCO [L8, Octaethylene Glycol Monododecyl Ether]	220 (≈ 119 µg/mL)

Same assay, conditions: Staphylococcus aureus, MRSA, 48 h, Staphylococcus aureus (MRSA) 11939; 48 hrs; read-out: MIC

SMILES	MIC [µM]
CCCCCCCCCCCCOCCOCCOCCOCCOCCOCCOCCOCCO [L8, Octaethylene Glycol Monododecyl Ether]	440 (≈ 237 µg/mL)

What follows are compounds tested on Enterococcus faecium (VRE) 255693 N. Tyneside (assay: MIC agar dilution, VRE strain 22). Details: 22 hrs.
Format: cell-based
Method: as §1, §2, §3, §4, §5, §6, §7, §8, §9

SMILES	MIC [µM]
CCCCCCCCCCCCOCCOCCOCCOCCOCCOCCOCCOCCO [L8, Octaethylene Glycol Monododecyl Ether]	> 880

Same assay, conditions: 48 hrs

SMILES	MIC [µM]
CCCCCCCCCCCCOCCOCCOCCOCCOCCOCCOCCOCCO [L8, Octaethylene Glycol Monododecyl Ether]	> 880

These compounds were tested on MRSA EMRSA 15 21268/98 (assay: MIC agar dilution, MRSA strain 40). Details: Staphylococcus aureus, 22 hrs.
Format: cell-based
Method: as §1, §2, §3, §4, §5, §6, §7, §8, §9

SMILES	MIC [µM]
CCCCCCCCCCCCOCCOCCOCCOCCOCCOCCOCCOCCO [L8, Octaethylene Glycol Monododecyl Ether]	> 440

Same assay, conditions: Staphylococcus aureus, 48 hrs

SMILES	MIC [µM]
CCCCCCCCCCCCOCCOCCOCCOCCOCCOCCOCCOCCO [L8, Octaethylene Glycol Monododecyl Ether]	> 440

The compounds below were run on Enterococcus faecalis (VRE) MB 1969 (assay: MIC agar dilution, VRE strain 27). Details: 22 hrs.
Format: cell-based
Method: as §1, §2, §3, §4, §5, §6, §7, §8, §9

SMILES	MIC [µM]
CCCCCCCCCCCCOCCOCCOCCOCCOCCOCCOCCOCCO [L8, Octaethylene Glycol Monododecyl Ether]	> 880

Same assay, conditions: 48 hrs

SMILES	MIC [µM]
CCCCCCCCCCCCOCCOCCOCCOCCOCCOCCOCCOCCO [L8, Octaethylene Glycol Monododecyl Ether]	> 880

What follows are compounds tested on MRSA BEL 97598 (assay: MIC agar dilution, MRSA strain 34). Details: Staphylococcus aureus, 22 hrs.
Format: cell-based
Method: as §1, §2, §3, §4, §5, §6, §7, §8, §9

SMILES	MIC [µM]
CCCCCCCCCCCCOCCOCCOCCOCCOCCOCCOCCOCCO [L8, Octaethylene Glycol Monododecyl Ether]	> 440

Same assay, conditions: Staphylococcus aureus, 48 hrs

SMILES	MIC [µM]
CCCCCCCCCCCCOCCOCCOCCOCCOCCOCCOCCOCCO [L8, Octaethylene Glycol Monododecyl Ether]	> 440

These compounds were tested on Staphylococcus aureus (assay: MIC agar dilution, micro-organism 13 (6571)). Details: Staphylococcus aureus, 22 h, Staphylococcus aureus 6571; 22 hrs; read-out: MIC.
Format: cell-based
How it was run: as §10

SMILES	MIC [µM]
CCCCCCCCCCCCOCCOCCOCCOCCOCCOCCOCCOCCO [L8, Octaethylene Glycol Monododecyl Ether]	110 (≈ 59.3 µg/mL)

Same assay, conditions: Staphylococcus aureus, 48 h, Staphylococcus aureus 6571; 48 hrs; read-out: MIC

SMILES	MIC [µM]
CCCCCCCCCCCCOCCOCCOCCOCCOCCOCCOCCOCCO [L8, Octaethylene Glycol Monododecyl Ether]	110 (≈ 59.3 µg/mL)

These compounds were tested on MRSA EMRSA 16 00036/95 (assay: MIC agar dilution, MRSA strain 46). Details: Staphylococcus aureus, 22 hrs.
Format: cell-based
Method: as §1, §2, §3, §4, §5, §6, §7, §8, §9

SMILES	MIC [µM]
CCCCCCCCCCCCOCCOCCOCCOCCOCCOCCOCCOCCO [L8, Octaethylene Glycol Monododecyl Ether]	> 440

Same assay, conditions: Staphylococcus aureus, 48 hrs

SMILES	MIC [µM]
CCCCCCCCCCCCOCCOCCOCCOCCOCCOCCOCCOCCO [L8, Octaethylene Glycol Monododecyl Ether]	> 440
